Assay results from US20240180877A1, “ANTI-ANXIETY COMPOSITION” (SUNTORY HOLDINGS LIMITED, priority 2021, published 2024).

What was measured:
[1] = biological target: T1, Recombinant human α4/β2 nicotinic acetylcholine receptors (nAChR (α4β2)) (Homo sapiens, UniProt P17787+P43681); experiment: Inhibition of [3H]cytisine binding to nAChR (α4β2) cell membranes; conditions: FIG. 3; 100 μM or 1000 μM; 0.6 nM [3H]cytisine; SH-SY5Y cell membranes
T1 construct: host or cells: SH-SY5Y
Procedure: (§1) In order to evaluate molecular targets for reducing glutamate signaling by L-ergothioneine, nicotinic acetylcholine receptors associated with glutamate signaling were subjected to in vitro assay. The in vitro assay was commissioned to Eurofins Panlabs. The test was performed by the following method.
Recombinant human α4/β2 nicotinic acetylcholine receptors (nAChR (α4β2)) expressed in human neuroblastoma-derived SH-SY5Y cells were used. Cell membranes (30 μg) of the cells expressing nAChR (α4β2) were incubated in Tris-HCl buffer (pH 7.4) with 0.6 nM [3H]cytisine and L-ergothioneine (L-ergothioneine concentration: 100 μM or 1000 μM) at 4° C. for 120 minutes. Non-specific binding was estimated in the presence of 10 μM nicotine bitartrate. The cell membranes were filtered through a filter and washed, and the activity of L-ergothioneine to inhibit binding of substrates was evaluated using radioactivity of [3H]cytisine as an index.

[2] = biological target: T2, Recombinant human α3/β4 nicotinic acetylcholine receptors (nAChR (α3β4)) (Homo sapiens, UniProt P30926+P32297); experiment: Inhibition of [125I]epibatidine binding to nAChR (α3β4) cell membranes
T2 construct: host or cells: CHO-K1
Procedure: as §1
Recombinant human α3/β4 nicotinic acetylcholine receptors (nAChR (α3β4)) expressed in Chinese hamster ovary-derived CHO-K1 cells were used. Cell membranes (0.6 μg) of the cells expressing nAChR (α3β4) were incubated in Tris-HCl buffer (pH 7.4) with 0.05 nM [125I]epibatidine and L-ergothioneine (L-ergothioneine concentration: 30 μM, 100 μM, 300 μM, 1000 μM, or 3000 μM) at 25° C. for 60 minutes. Non-specific binding was estimated in the presence of 10 μM epibatidine. The cell membranes were filtered through a filter and washed, and the activity of L-ergothioneine to inhibit binding of substrates was evaluated using radioactivity of [125I]epibatidine as an index.

[3] = biological target: Recombinant human α7 nicotinic acetylcholine receptors (nAChR (α7)) (Homo sapiens, UniProt P36544); assay type: binding; conditions: FIG. 3; 100 μM or 1000 μM; 0.4 nM [125I]-α-bungarotoxin; SH-SY5Y cell membranes
Sequence of Recombinant human α7 nicotinic acetylcholine receptors (nAChR (α7)) (P36544 23-502): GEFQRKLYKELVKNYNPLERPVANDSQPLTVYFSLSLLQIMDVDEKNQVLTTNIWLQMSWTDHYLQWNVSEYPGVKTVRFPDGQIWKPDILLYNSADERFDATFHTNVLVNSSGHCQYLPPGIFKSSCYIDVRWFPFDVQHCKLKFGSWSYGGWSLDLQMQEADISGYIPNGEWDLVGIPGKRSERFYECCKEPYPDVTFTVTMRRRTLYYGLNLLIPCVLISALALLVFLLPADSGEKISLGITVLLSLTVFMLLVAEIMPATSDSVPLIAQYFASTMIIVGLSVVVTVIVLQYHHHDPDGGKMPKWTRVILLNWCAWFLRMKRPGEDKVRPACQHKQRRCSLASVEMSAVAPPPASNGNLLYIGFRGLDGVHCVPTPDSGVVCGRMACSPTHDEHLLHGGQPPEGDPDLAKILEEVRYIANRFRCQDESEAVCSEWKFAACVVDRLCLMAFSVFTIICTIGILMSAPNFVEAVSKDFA

T2 sequence (P30926 22-498): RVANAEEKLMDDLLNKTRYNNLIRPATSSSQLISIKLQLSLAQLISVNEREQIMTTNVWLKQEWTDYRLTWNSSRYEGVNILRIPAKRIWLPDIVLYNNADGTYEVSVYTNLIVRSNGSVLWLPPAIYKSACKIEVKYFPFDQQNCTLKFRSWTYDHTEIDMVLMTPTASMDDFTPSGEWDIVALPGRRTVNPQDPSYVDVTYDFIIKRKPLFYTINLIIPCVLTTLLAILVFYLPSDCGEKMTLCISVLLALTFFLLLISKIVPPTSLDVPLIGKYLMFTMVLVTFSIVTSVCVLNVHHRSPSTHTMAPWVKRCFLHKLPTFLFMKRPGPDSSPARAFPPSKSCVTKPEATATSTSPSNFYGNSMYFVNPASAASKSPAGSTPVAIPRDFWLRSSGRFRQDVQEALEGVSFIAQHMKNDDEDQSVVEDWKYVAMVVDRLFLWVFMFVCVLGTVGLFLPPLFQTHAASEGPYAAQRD
T2 sequence (P32297 32-505): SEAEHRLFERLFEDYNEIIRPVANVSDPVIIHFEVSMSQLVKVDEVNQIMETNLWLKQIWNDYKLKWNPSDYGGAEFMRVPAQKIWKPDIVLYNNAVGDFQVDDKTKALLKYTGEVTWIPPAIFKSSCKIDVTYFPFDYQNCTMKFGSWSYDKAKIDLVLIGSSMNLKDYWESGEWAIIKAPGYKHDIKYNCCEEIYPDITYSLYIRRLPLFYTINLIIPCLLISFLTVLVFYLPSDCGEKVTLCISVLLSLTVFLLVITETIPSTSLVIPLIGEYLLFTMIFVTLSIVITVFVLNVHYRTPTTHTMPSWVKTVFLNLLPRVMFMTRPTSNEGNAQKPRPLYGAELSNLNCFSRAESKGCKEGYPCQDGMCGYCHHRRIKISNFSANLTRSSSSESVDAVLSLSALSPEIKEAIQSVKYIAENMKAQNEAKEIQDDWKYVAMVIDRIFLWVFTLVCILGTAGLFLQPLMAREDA
T1 sequence (P43681 29-627 limits assumed): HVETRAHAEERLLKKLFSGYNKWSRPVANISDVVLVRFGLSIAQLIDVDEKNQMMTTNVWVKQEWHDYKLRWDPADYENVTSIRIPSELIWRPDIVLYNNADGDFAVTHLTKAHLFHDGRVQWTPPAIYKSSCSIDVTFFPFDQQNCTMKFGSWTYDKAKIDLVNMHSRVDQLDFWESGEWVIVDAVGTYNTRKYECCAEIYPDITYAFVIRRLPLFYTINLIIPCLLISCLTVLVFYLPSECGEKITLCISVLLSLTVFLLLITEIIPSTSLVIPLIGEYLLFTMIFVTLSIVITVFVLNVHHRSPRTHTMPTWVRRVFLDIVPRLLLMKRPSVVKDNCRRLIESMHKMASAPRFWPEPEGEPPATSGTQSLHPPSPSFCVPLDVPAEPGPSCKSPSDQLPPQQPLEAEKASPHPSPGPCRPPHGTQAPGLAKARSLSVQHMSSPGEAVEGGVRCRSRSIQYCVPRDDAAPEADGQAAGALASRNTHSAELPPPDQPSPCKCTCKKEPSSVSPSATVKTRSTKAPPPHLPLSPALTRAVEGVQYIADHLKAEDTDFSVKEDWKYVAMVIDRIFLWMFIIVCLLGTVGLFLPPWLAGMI
T1 sequence (P17787 26-502): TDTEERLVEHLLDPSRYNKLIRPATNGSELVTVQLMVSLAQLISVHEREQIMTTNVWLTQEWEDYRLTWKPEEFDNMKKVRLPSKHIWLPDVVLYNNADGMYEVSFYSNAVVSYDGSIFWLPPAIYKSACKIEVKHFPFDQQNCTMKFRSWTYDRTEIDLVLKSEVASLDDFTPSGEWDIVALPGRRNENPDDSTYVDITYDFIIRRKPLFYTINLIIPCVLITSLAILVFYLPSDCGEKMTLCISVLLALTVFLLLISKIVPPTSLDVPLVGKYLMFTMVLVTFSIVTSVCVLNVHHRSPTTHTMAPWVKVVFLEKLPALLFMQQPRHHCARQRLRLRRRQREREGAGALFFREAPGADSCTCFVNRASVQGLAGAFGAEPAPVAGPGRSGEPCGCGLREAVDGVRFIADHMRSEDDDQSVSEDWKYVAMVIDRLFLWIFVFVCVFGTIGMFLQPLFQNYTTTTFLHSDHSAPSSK

For C[N+](C)(C)[C@@H](Cc1c[nH]c(=S)[nH]1)C(=O)[O-] [L-ergothioneine], which “activity to inhibit binding of substrates to α4β2 receptors” value [1] is on record?
The value was “showed the activity”.

And the “activity to inhibit binding of substrates to α3β4 receptors” value ([2]; FIG. 3, [125I]epibatidine)?
Its value is “strong activity”.

What about the IC50 ([2]; five concentrations 30-3000 μM, 0.05 nM [125I]epibatidine, CHO-K1 cell membranes, 25° C., 60 minutes, read-out: 50% inhibitory concentration) of the same molecule?
The IC50 was 1110 µM.

What about the “activity to inhibit binding of substrates to α7 receptors” value [3] of the same molecule?
Its value is “showed the activity”.
